For 17 compounds, MIC results are on record in patent publication US12173018B2, “Penicillin-binding protein inhibitors” (priority 2018, dated 2024).

One assay has as its system E. coli ATCC 25922. In words: Broth microdilution MIC, E. coli ATCC 25922. Type of assay: cell-based. To be noted: Escherichia coli. In a few lines: (§1)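 Visual MIC readout after 16-20 h at 37° C in CLSI-format microdilution. Compounds tested as 2-fold series against a 5×10^5 CFU/mL inoculum in cation-supplemented Mueller-Hinton broth.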
For the next assay, the system named is E. coli AG100. In words: Broth microdilution MIC, E. coli AG100 (wild-type parent). Type of assay: cell-based. To be noted: Escherichia coli; wild-type parent E. coli AG100, broth microdilution; read-out: MIC E. coli AG100. The gist of the method:
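Starting inoculum of 5×10^5 CFU/mL, from colonies grown 3-5 h in Mueller-Hinton broth with divalent cations, added to two-fold compound dilution series.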
On the technique in general: Dilution methods test growth across graded concentrations, often in twofold steps.

Another assay has as its system K. pneumoniae 848844. In words: microbe, parasite or virus in culture. It is filed as cell-based, Klebsiella pneumoniae. The note with it: Klebsiella pneumoniae; K. pneumoniae 848844 producing SHV-11 and KPC-2; read-out: MIC K. pneumoniae 848844. The gist of the method:
as §1

The next assay relates to N. gonorrhoeae FA1090. In words: Liquid broth MIC, N. gonorrhoeae FA1090. It is filed as cell-based. The note with it: Neisseria gonorrhoeae; N. gonorrhoeae FA1090, liquid broth; read-out: Minimum Inhibitory Concentration, N. gonorrhoeae FA1090. In a few lines:
(§2)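 In liquid broth, wild-type reference gonococci at 5×10^5 CFU/mL faced twofold compound dilutions for 40-42 hours (36° C, 5% CO2). The MIC was the lowest concentration with no growth seen by eye.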

Assay [1] has as its system N. gonorrhoeae ATCC 49226. In words: Liquid broth MIC, N. gonorrhoeae ATCC 49226. Type of assay: cell-based. The note with it: Neisseria gonorrhoeae, ATCC49226; N. gonorrhoeae ATCC 49226, liquid broth; read-out: Minimum Inhibitory Concentration, N. gonorrhoeae ATCC 49226. In a few lines: as §2
The test system of another assay is N. gonorrhoeae WHO F. In words: Liquid broth MIC, N. gonorrhoeae WHO F. It is filed as cell-based. To be noted: Neisseria gonorrhoeae; N. gonorrhoeae WHO F, liquid broth; read-out: Minimum Inhibitory Concentration, N. gonorrhoeae WHO F. In a few lines:
as §2

[2] abbreviates: ATCC25922, E. coli ATCC 25922, broth microdilution, read-out: MIC E. coli 25922.

Values after ≈ are worked out from the molar mass of the structure shown. Like-named read-outs stand apart in the source and are kept apart here.

As to `CCN1CCN(C(=O)NC(C(=O)N[C@H]2Cc3cccc(C(=O)[O-])c3OB2O)c2ccc[n+](CC(N)=O)c2)C(=O)C1=O` (stereo partly drawn) [Example 107, (3R)-3-(2-(1-(2-amino-2-oxoethyl)pyridin-1-ium-3-yl)-2-(4-ethyl-2,3-dioxopiperazine-1-carboxamido)acetamido)-2-hydroxy-3,4-dihydro-2H-benzo[e][1,2]oxaborinine-8-carboxylate], the MIC in the assay on E. coli ATCC 25922 (setting [2]), in the assay with E. coli AG100 and with K. pneumoniae 848844 was 32 to 64 µg/mL throughout.
Take `CCN1CCN(C(=O)NC(C(=O)N[C@H]2Cc3cccc(C(=O)O)c3OB2O)c2cc(O)c(O)cc2F)C(=O)C1=O` (stereo partly drawn) [Example 90, (3R)-3-(2-(4-ethyl-2,3-dioxopiperazine-1-carboxamido)-2-(2-fluoro-4,5-dihydroxyphenyl)acetamido)-2-hydroxy-3,4-dihydro-2H-benzo[e][1,2]oxaborinine-8-carboxylic acid]: the MIC is 8 to 16 µg/mL in the assay on E. coli ATCC 25922 (setting [2]), 8 to 16 µg/mL in the assay on E. coli AG100 and 32 to 64 µg/mL with K. pneumoniae 848844.
Take `O=C(O)c1cccc2c1OB(O)[C@@H](NC(=O)C(NC(=O)N1CCN(CCF)C(=O)C1=O)c1ccc(O)c(O)c1Cl)C2` (stereo partly drawn) [Example 71, (3R)-3-(2-(2-chloro-3,4-dihydroxyphenyl)-2-(4-(2-fluoroethyl)-2,3-dioxopiperazine-1-carboxamido)acetamido)-2-hydroxy-3,4-dihydro-2H-benzo[e][1,2]oxaborinine-8-carboxylic acid]: the MIC was 8 to 16 µg/mL with E. coli ATCC 25922 (setting [2]) and 2 to 4 µg/mL in the assay on E. coli AG100.
Turning to `CCN1CCN(C(=O)NC(C(=O)N[C@H]2Cc3cccc(C(=O)O)c3OB2O)c2cccs2)C(=O)C1=O` (stereo partly drawn) [Example 115, (3R)-3-(2-(4-ethyl-2,3-dioxopiperazine-1-carboxamido)-2-(thiophen-2-yl)acetamido)-2-hydroxy-3,4-dihydro-2H-benzo[e][1,2]oxaborinine-8-carboxylic acid], the MIC with E. coli ATCC 25922 (setting [2]) was 32 to 64 µg/mL; in the assay on E. coli AG100 it was 32 to 64 µg/mL; with K. pneumoniae 848844, over 128 µg/mL.
As for `CCN1CCN(C(=O)NC(C(=O)N[C@H]2Cc3cccc(C(=O)O)c3OB2O)c2cccc(O)n2)C(=O)C1=O` (stereo partly drawn) [Example 117, (3R)-3-(2-(4-ethyl-2,3-dioxopiperazine-1-carboxamido)-2-(6-hydroxypyridin-2-yl)acetamido)-2-hydroxy-3,4-dihydro-2H-benzo[e][1,2]oxaborinine-8-carboxylic acid], the MIC with E. coli ATCC 25922 (setting [2]) was 32 to 64 µg/mL; in the assay with E. coli AG100 it was over 128 µg/mL; with K. pneumoniae 848844, 32 to 64 µg/mL.
Regarding `CCCN1CCN(C(=O)NC(C(=O)N[C@H]2Cc3ccc(F)c(C(=O)O)c3OB2O)c2ccc(O)c(O)c2Cl)C(=O)C1=O` (stereo partly drawn) [Example 125], the MIC with N. gonorrhoeae FA1090 was 1 to 2 µg/mL (≈ 1.65 to 3.3 µM); in assay [1], 4 to 8 µg/mL (≈ 6.59 to 13.2 µM); with E. coli ATCC 25922 (setting [2]), 2 to 4 µg/mL; in the assay with E. coli AG100, 2 to 4 µg/mL; in the assay with N. gonorrhoeae WHO F it was 0.25 to 0.5 µg/mL (≈ 0.412 to 0.824 µM).
As to `CCN1CCN(C(=O)NC(C(=O)N[C@H]2Cc3cccc(C(=O)O)c3OB2O)c2ccc(O)cc2)C(=O)C1=O` (stereo partly drawn) [Example 27, (3R)-3-(2-(4-ethyl-2,3-dioxopiperazine-1-carboxamido)-2-(4-hydroxyphenyl)acetamido)-2-hydroxy-3,4-dihydro-2H-benzo[e][1,2]oxaborinine-8-carboxylic acid], the MIC with E. coli ATCC 25922 (ATCC25922, read-out: MIC E. coli 25922) was 32 to 64 µg/mL; in the assay on E. coli AG100, 32 to 64 µg/mL; with K. pneumoniae 848844, over 128 µg/mL.
Consider `CCN1CCN(C(=O)NC(C(=O)N[C@H]2Cc3cccc(C(=O)O)c3OB2O)c2cccc(N)n2)C(=O)C1=O` (stereo partly drawn) [Example 104, (3R)-3-(2-(6-aminopyridin-2-yl)-2-(4-ethyl-2,3-dioxopiperazine-1-carboxamido)acetamido)-2-hydroxy-3,4-dihydro-2H-benzo[e][1,2]oxaborinine-8-carboxylic acid], for which the MIC was 8 to 16 µg/mL in the assay with E. coli ATCC 25922 (setting [2]), 32 to 64 µg/mL in the assay on E. coli AG100 and over 128 µg/mL with K. pneumoniae 848844.
Turning to `CCN1CCN(C(=O)NC(C(=O)N[C@H]2Cc3cc(F)cc(C(=O)O)c3OB2O)c2csc(N)n2)C(=O)C1=O` (stereo partly drawn) [Example 16, (3R)-3-(2-(2-aminothiazol-4-yl)-2-(4-ethyl-2,3-dioxopiperazine-1-carboxamido)acetamido)-6-fluoro-2-hydroxy-3,4-dihydro-2H-benzo[e][1,2]oxaborinine-8-carboxylic acid], the MIC with E. coli ATCC 25922 (setting [2]), in the assay on E. coli AG100 and in the assay with K. pneumoniae 848844 was 32 to 64 µg/mL throughout.
As to `CCN1CCN(C(=O)N[C@@H](C(=O)N[C@H]2Cc3ccc(F)c(C(=O)O)c3OB2O)[C@@H](C)O)C(=O)C1=O` [Example 110, (R)-3-((2R,3R)-2-(4-ethyl-2,3-dioxopiperazine-1-carboxamido)-3-hydroxybutanamido)-7-fluoro-2-hydroxy-3,4-dihydro-2H-benzo[e][1,2]oxaborinine-8-carboxylic acid], the MIC is 8 to 16 µg/mL with E. coli ATCC 25922 (setting [2]), 8 to 16 µg/mL in the assay with E. coli AG100 and 32 to 64 µg/mL with K. pneumoniae 848844.
`NS(=O)(=O)c1ccc(C(NC(=O)N2CCN(CCF)C(=O)C2=O)C(=O)N[C@H]2Cc3cccc(C(=O)O)c3OB2O)cc1` (stereo partly drawn) [Example 103, (3R)-3-(2-(4-(2-fluoroethyl)-2,3-dioxopiperazine-1-carboxamido)-2-(4-sulfamoylphenyl)acetamido)-2-hydroxy-3,4-dihydro-2H-benzo[e][1,2]oxaborinine-8-carboxylic acid]: the MIC is under 0.125 µg/mL in the assay with N. gonorrhoeae FA1090; 1 to 2 µg/mL (≈ 1.65 to 3.3 µM) in assay [1]; 32 to 64 µg/mL in the assay with E. coli ATCC 25922 (setting [2]); 8 to 16 µg/mL with E. coli AG100; under 0.125 µg/mL with N. gonorrhoeae WHO F.
Take `CCN1CCN(C(=O)NC(C(=O)N[C@H]2Cc3cccc(C(=O)O)c3OB2O)c2cnc(O)cn2)C(=O)C1=O` (stereo partly drawn) [Example 121, (3R)-3-(2-(4-ethyl-2,3-dioxopiperazine-1-carboxamido)-2-(5-hydroxypyrazin-2-yl)acetamido)-2-hydroxy-3,4-dihydro-2H-benzo[e][1,2]oxaborinine-8-carboxylic acid]: the MIC with E. coli ATCC 25922 (setting [2]) is 32 to 64 µg/mL; in the assay on E. coli AG100, 32 to 64 µg/mL; in the assay on K. pneumoniae 848844, over 128 µg/mL.
Consider `CCCN1CCN(C(=O)NC(C(=O)N[C@H]2Cc3cccc(C(=O)O)c3OB2O)c2ccc(O)c(O)c2Cl)C(=O)C1=O` (stereo partly drawn) [Example 82, (3R)-3-(2-(2-chloro-3,4-dihydroxyphenyl)-2-(2,3-dioxo-4-propylpiperazine-1-carboxamido)acetamido)-2-hydroxy-3,4-dihydro-2H-benzo[e][1,2]oxaborinine-8-carboxylic acid], for which the MIC with E. coli ATCC 25922 (setting [2]) is 32 to 64 µg/mL; with E. coli AG100, 32 to 64 µg/mL; in the assay on K. pneumoniae 848844, over 128 µg/mL.
Consider `CCN1CCN(C(=O)NC(C(=O)N[C@H]2Cc3cccc(C(=O)O)c3OB2O)c2cnc(N)s2)C(=O)C1=O` (stereo partly drawn) [Example 51, (3R)-3-(2-(2-aminothiazol-5-yl)-2-(4-ethyl-2,3-dioxopiperazine-1-carboxamido)acetamido)-2-hydroxy-3,4-dihydro-2H-benzo[e][1,2]oxaborinine-8-carboxylic acid], for which the MIC in the assay with E. coli ATCC 25922 (setting [2]) is 8 to 16 µg/mL; in the assay with E. coli AG100, 32 to 64 µg/mL.
Turning to `CCN1CCN(C(=O)NC(C(=O)N[C@H]2Cc3cccc(C(=O)O)c3OB2O)c2ccc(O)cc2F)C(=O)C1=O` (stereo partly drawn) [Example 87, (3R)-3-(2-(4-ethyl-2,3-dioxopiperazine-1-carboxamido)-2-(2-fluoro-4-hydroxyphenyl)acetamido)-2-hydroxy-3,4-dihydro-2H-benzo[e][1,2]oxaborinine-8-carboxylic acid], the MIC is under 0.125 µg/mL in the assay on N. gonorrhoeae FA1090, 1 to 2 µg/mL (≈ 1.84 to 3.69 µM) in assay [1] and under 0.125 µg/mL in the assay with N. gonorrhoeae WHO F.
For `CCN1CCN(C(=O)NC(C(=O)N[C@H]2Cc3cccc(C(=O)O)c3OB2O)c2ccc(O)c(O)c2Cl)C(=O)C1=O` (stereo partly drawn) [Example 37, (3R)-3-(2-(2-chloro-3,4-dihydroxyphenyl)-2-(4-ethyl-2,3-dioxopiperazine-1-carboxamido)acetamido)-2-hydroxy-3,4-dihydro-2H-benzo[e][1,2]oxaborinine-8-carboxylic acid], the MIC fell in the range of 1 to 2 µg/mL (≈ 1.74 to 3.48 µM) with N. gonorrhoeae FA1090; 4 to 8 µg/mL (≈ 6.96 to 13.9 µM) in assay [1]; 32 to 64 µg/mL in the assay with E. coli ATCC 25922 (setting [2]); 32 to 64 µg/mL with E. coli AG100; 1 to 2 µg/mL (≈ 1.74 to 3.48 µM) in the assay on N. gonorrhoeae WHO F.
In the case of `CCN1CCN(C(=O)NC(C(=O)N[C@H]2Cc3cccc(C(=O)O)c3OB2O)c2ccc(S(N)(=O)=O)cc2)C(=O)C1=O` (stereo partly drawn) [Example 102, (3R)-3-(2-(4-ethyl-2,3-dioxopiperazine-1-carboxamido)-2-(4-sulfamoylphenyl)acetamido)-2-hydroxy-3,4-dihydro-2H-benzo[e][1,2]oxaborinine-8-carboxylic acid], the MIC in the assay with N. gonorrhoeae FA1090 was under 0.125 µg/mL; in assay [1] it was 1 to 2 µg/mL (≈ 1.7 to 3.4 µM); in the assay with E. coli ATCC 25922 (setting [2]), 32 to 64 µg/mL; in the assay with E. coli AG100 it was 8 to 16 µg/mL; in the assay with N. gonorrhoeae WHO F, under 0.125 µg/mL.
